# Laboratory results as given in patent US20150011483A1, “Inhibition of HIV-1 Infection by Potent Metallocene Conjugated Peptide Through Conformational Entrapment of Envelope GP120” (priority 2007, published 2015).
# Read-outs that look alike come from different tables or passages of the source.
# What was measured:
# HIV-1 strain BaL [1] = conditions: P4-CCR5 cells (Gopi et al., 2008); read-out: IC50, inhibition of infection by HIV-1 BaL; cited from earlier work
# HIV-1 YU2 gp120 = target: T1, HIV-1 YU2 gp120 (Human immunodeficiency virus type 1 group M subtype B, UniProt P35961); experiment: SPR direct binding to immobilized YU2 gp120
# T1 construct: made in house; host or cells: Drosophila S2 cells
# Procedure: All surface plasmon resonance experiments (SPR) were performed on a BIA3000 optical biosensor (Biocore, Inc., Uppsala, Sweden). […] For direct binding experiments, YU2 gp120 was immobilized on the surface (˜4000RU); peptide analytes in PBS buffer were passed over the surface at a flow rate of 50 μL/min. with 5 minute association phase and 5 minute dissociation phase. […] The indicated analytes were passed over the surfaces at a flow rate of 50 μL/minute, with 2.5 minute association phase and 2.5 minute dissociation phase.
# Data analysis was performed using BIAEvaluation® 4.0 software (Biacore Inc., NJ). The responses of a buffer injection and responses from the control surface to which the mAb 2B6R was immobilized, were subtracted to account for nonspecific binding. Experimental data were fitted to a simple 1:1 Langmuir binding model with a parameter included for mass transport. The average kinetic parameters (association [ka] and dissociation [kd] rates) generated from a minimum of four datasets were used to define equilibrium association (KA) and dissociation constants (KD).
# HIV-1 92UG037-08 gp120 = experiment: SPR direct binding to immobilized 92UG037-08 gp120; conditions: HIV-1 env 92UG037-08 (A)
# [2] = target: T2, YU2 gp120 binding to sCD4 (Human immunodeficiency virus type 1 group M subtype B, UniProt P35961); experiment: SPR competition: inhibition of YU2 gp120 binding to immobilized sCD4; set-up: species or system HIV-1; conditions: 100 nM YU2 gp120, peptide 10 to 600 nM
# T2 construct: made in house; host or cells: gp120: Drosophila S2 cells; sCD4: CHO cells
# Excerpt: (§1) In one experiment, antibodies b6, b12, or F105 were immobilized on a biosensor CM5 chip.
# YU2 gp120 binding to 17b = target: T3, YU2 gp120 binding to 17b (Human immunodeficiency virus type 1 group M subtype B, UniProt P35961); experiment: SPR competition: inhibition of YU2 gp120 binding to immobilized 17b; set-up: species or system HIV-1; conditions: 100 nM YU2 gp120, peptide 10 to 600 nM
# T3 construct: made in house; host or cells: gp120: Drosophila S2 cells
# Excerpt: as §1
# gp120 binding to 2G12 = target: T4, gp120 binding to 2G12 (Human immunodeficiency virus type 1 group M subtype B, UniProt P35961); experiment: Effect on gp120 binding to antibody 2G12; set-up: species or system HIV-1
# T4 construct: with a constant concentration (100 nM) of YU2 gp120
# gp120 binding to sCD4 = target: T5, gp120 binding to sCD4 (Human immunodeficiency virus type 1 group M subtype B, UniProt P35961); set-up: species or system HIV-1; conditions: in the presence of HNG-156
# T5 construct: made in house; host or cells: sCD4: CHO cells; gp120 (if YU2): Drosophila S2 cells
# HIV-1 strain BaL [3] = experiment: Inhibition of HIV-1 BaL infection of P4-CCR5 cells (whole virus assay); format: cell-based
# Excerpt: Infectivity remaining is expressed relative to mock-treated, HIV-1-infected cells.
# P4-CCR5 cells [4] = experiment: In vitro cytotoxicity, MTT assay; format: cell-based; conditions: concentrations as high as 0.1 mg/ml, 2 hours
# Procedure: P4-CCR5 cells were seeded at a density of 4×10^4 cells/well in a 96 well plate approximately 18 hours prior to experiment. […] The cells were subsequently washed and assessed for viability using a 3-(4,5-dimethylthiazol-2-yl)-2,5-diphenyltetrazolium bromide (MTT) assay of viability (previously described in Krebs et al. (1999). Concentrations were tested in triplicate in two independent assays.
# HIV-1 strain BaL [5] = experiment: Combination of HNG-156 and cyanovirin-N against HIV-1 BaL infection of P4-CCR5 cells; format: cell-based; conditions: for IC50, viral infectivity inhibition: HIV-1 BaL, P4-CCR5 cells, combination at constant ratio 1:8.2 by weight, plotted against first-named component
# Procedure: Dextran sulfate (DS) was used as a comparative. […] Combination Indexes (CIs) were calculated using the CalcuSyn software. […] CI values were calculated for 50, 75, and 90% HIV inhibition.
# sCD4 = target: T6, sCD4 (Homo sapiens, UniProt P01730); experiment: SPR direct binding of peptide to immobilized sCD4
# T6 construct: made in house; host or cells: CHO cells
# 17b = experiment: SPR direct binding of peptide to immobilized 17b
# P4-CCR5 cells [6] = conditions: at concentrations corresponding to IC50 values; cited from earlier work
molecule,measurement,setting,value
"CC[C@H](C)[C@H](NC(=O)[C@@H](N)CCCNC(=N)N)C(=O)N[C@@H](CC(N)=O)C(=O)N[C@@H](CC(N)=O)C(=O)N[C@H](C(=O)N1CCC[C@H]1C(=O)N[C@@H](Cc1c[nH]c2ccccc12)C(=O)N[C@@H](CO)C(=O)N[C@@H](CCC(=O)O)C(=O)N[C@@H](C)C(=O)N[C@@H](CCSC)C(=O)N[C@@H](CCSC)C(=O)O)[C@@H](C)CC [12p1, reference compound]",IC50,HIV-1 strain BaL [1],48000 nM
CC[C@H](C)[C@H](NC(=O)[C@@H](N)CCCNC(=N)N)C(=O)N[C@@H](CC(N)=O)C(=O)N[C@@H](CC(N)=O)C(=O)N[C@H](C(=O)N1C[C@@H](n2cc([C]34[CH]5[CH]6[CH]7[CH]3[Fe]6754389%10[CH]4[CH]3[CH]8[CH]9[CH]4%10)nn2)C[C@H]1C(=O)N[C@@H](Cc1c[nH]c2ccccc12)C(=O)N[C@@H](CO)C(=O)N[C@@H](CCC(=O)O)C(=O)N[C@@H](C)C(=O)N[C@@H](CCSC)C(=O)N[C@@H](CCSC)C(N)=O)[C@@H](C)CC (some centres unmarked) [HNG-156],kd,"HIV-1 YU2 gp120; HIV-1 env YU2, Table 1",0.000955 s⁻¹
same,affinity higher than HNG-105's affinity,HIV-1 YU2 gp120; YU2 gp120,roughly 3 fold
same,Kd,HIV-1 92UG037-08 gp120,16.3 nM
same,ka,HIV-1 92UG037-08 gp120,106000 M⁻¹ s⁻¹
same,inhibition of binding of gp120 to sCD4 surface,[2],complete inhibition
same,inhibition of binding of gp120 to 17b surface,YU2 gp120 binding to 17b,complete inhibition
same,effect on the binding of 2G12,gp120 binding to 2G12,did not show any effect
same,reduction of the affinity of CD4,gp120 binding to sCD4,reduced by two orders of magnitude
same,more effective than HNG-105 in inhibiting infection,HIV-1 strain BaL [3]; HIV-1 BaL,approximately 15 fold
same,effect on P4-CCR5 cell viability,P4-CCR5 cells [4],no effect
same,"IC50, viral infectivity inhibition",HIV-1 strain BaL [5],0.213 microgram/milliter
same,direct binding to sCD4,sCD4,no direct binding
same,direct binding to 17b,17b,no direct binding
RINNIPWSEAMM [HNG-113],IC50,HIV-1 strain BaL [1],156 nM
same,impact on cell viability,P4-CCR5 cells [6],no or minimal impact
RINNIPWSEAMM [HNG-124],IC50,HIV-1 strain BaL [1],418 nM
same,impact on cell viability,P4-CCR5 cells [6],no or minimal impact
RINNIPWSEAMM [HNG-137],IC50,HIV-1 strain BaL [1],610 nM
same,impact on cell viability,P4-CCR5 cells [6],no or minimal impact
dextran sulfate [DS],IC50,HIV-1 strain BaL [3]; result of one trial,9800 nM
same,"IC50, inhibition of infection by HIV-1 BaL",HIV-1 strain BaL [3]; result of one trial,4.9 µg/mL
same,"IC50, viral infectivity inhibition",HIV-1 strain BaL [5],0.900 microgram/milliter
"Cyanovirin-N: 11 kD protein originally isolated from the cyanobacteria Nostoc ellipsosporum, binds gp120 (protein, listed as Nostoc ellipsosporum, DISULFID (8)..(22) disulfide bond) LGKFSQTCYNSAIQGSVLTSTCERTNGGYNTSSIDLNSVIENVDGSLKWQPSNFIETCRNTQLAGSSELAAECKTRAQQFVSTKINLDDHIANIDGTLKYE",improvement in the efficacy of CV-N in viral inhibition upon addition of HNG-156,HIV-1 strain BaL [5],~10 fold
same,"IC50, viral infectivity inhibition",HIV-1 strain BaL [5],0.026 microgram/milliter
same,EC50 Dm,HIV-1 strain BaL [5]; dose at which 50% neutralization occurs,0.045 µg/mL
